These results are taken from the NIST ThermoML archive (doi:10.1016/j.jct.2013.12.024).

The conditions of the data set: 298.15 K; 101.33 kPa; Liquid; Vibrating tube method.

± gives the expanded uncertainty stated by the source.

The mass density is the mass of a sample divided by its volume. Regarding `CCCCCCCl` [1-chlorohexane], the mass density was 873.38 ± 0.3 kg/m3. Regarding `c1ccccc1` [benzene], the mass density turned out to be 873.45 ± 0.11 kg/m3.

Turning to `Clc1cccc(Cl)c1` [1,3-dichlorobenzene], the mass density was found to be 1282.87 ± 0.61 kg/m3.
